Where two headings read alike, the source gives them in different places.
Assays:
[1] = test system: reactive oxygen species (ROS); test: ROS production in FFA-stressed cells; type: cell-based, human; settings: averaged % of increase (+) or decrease (−) compared to control (FFA induced oxidatively stressed endothelial cells), n = 3
Source text: The assays focused on the production of nitric oxide (NO) and the upregulation of nitric oxide synthase (eNOS), the production of reactive oxygen species (ROS) and the activity of nicotinamide adenine dinucleotide phosphate (NADPH) oxidase (Table 2). From the hypothesised model of heparan sulfate-glycomimetic activity,[17] the glycomimetics are proposed to attenuate the binding of HGF to the cMET receptor. This disruption to MET-receptor activation is proposed to modulate intracellular phosphorylation leading to an upregulation of eNOS and increased output of extracellular NO. […] Overall, the cross examination of NO output and reduction of ROS was used to determine the therapeutic action of the triaged glycomimetics α-4, R-10, S-10 and β-5, as well as 3 non-sulfated intermediates α-2, α-3 and β-3, on free fatty acid (FFA) induced, oxidatively stressed endothelial cell cultures (Table 2).
Biological assay and AMDET experimental details […]
Preparation of FFA-albumin complexes and cell treatments
To generate the in vitro model of oxidative stress, sodium palmitate was bound to bovine serum albumin (BSA) as outlined by Chavez and Summers,S2 with modifications. Sodium palmitate (FFA) was dissolved in EtOH at 60 °C and diluted 1:100 in M199 media supplemented with 2% fatty acid-free bovine serum albumin (BSA) and incubated for 1 h at 37 °C. HepG2 cells were treated with 1 μmol/L of the synthesized HS-glycomimetics in the presence of palmitate (100 μmol/L) for 3 h or pre-treated with glycomimetics for 12 h followed by 3 h palmitate (100 μmol/L). Control cells were incubated in serum free M199 containing 2% (wt/vol) fatty acid-free BSA.
NO release assay and Quantification of ROS production […]
The auto-fluorescence was subtracted from each value. Cells were incubated with 10 μmol/L of the fluorescent probe: 2′-7′-dichlorodihydrofluorescein diacetate (CM-H2DCFDA, Sigma) for 30 min at 37 °C, and the level of fluorescence was determined (excitation 490 nm; emission 540 nm) using a microplate reader (BioTek).
The level of NADPH-enhanced superoxide anions (O2•−) in HepG2 homogenates was determined by lucigenin-enhanced chemiluminescence.S4 Following the various treatment conditions, cells were homogenized in a buffer (20 mmol/L H2KPO4 and 1 mmol/L EDTA supplemented with aprotinin, leuprotinin, pepstatin and PMSF). The total protein quantified using the Bicinchoninic acid (BCA) assay (Pierce Biotechnology). To 50 μg of total protein, NADPH (100 μmol/L) was added in a total volume of 500 μL, with lucigenin (5 μmol/L) and was injected automatically. Activity was determined by measuring luminescence over 200 s in a scintillation counter (Lumat LB 9507, Berthold, Germany). Basal values of NADPH oxidase activity were subtracted from the experimental values and expressed as RLU/min/μg protein […]
In situ quantification of ROS species
Superoxide dismutase (SOD) and catalase (CAT) activity assays, and in situ detection of vascular ROS content. The activity of the enzymes, SOD and CAT, was determined in cell homogenates using assay kits according to the manufacturer's instructions (Cayman; Cat No 706002 and 707002 respectively). A unit of SOD was defined as the amount of enzyme […]
Similarly, a unit of CAT was […]
defined as the amount required to form 1.0 nmol of formaldehyde per min at 25 °C.S5 […]
HepG2 cells were incubated in serum-free DMEM containing 2% fatty acid-free BSA (control) or palmitate conjugated BSA (100 μmol/L) in the presence of HS-glycomimetics (1 or 10 μmol/L) for 24 h. The cells were incubated for 30 min in Hepes-buffered solution containing 10 μmol/L dihydroethidium (DHE), which intercalates with DNA in the presence of ROS and is detectable by fluorescence. Cells were counterstained with the nuclear stain DAPI at 0.3 μmol/L. In the following 24 h, the cell cultures were examined using a fluorescence microscope (Leica DMIRB). Sections were photographed and fluorescence was quantified using ImageJ. […]

[2] = Microsomal metabolic stability, rat liver microsomes; type: in vitro ADME; settings: liver microsomes (pooled); for microsomal CLint at 3 µM / microsomal CLint at 0.75 h, 3 µM: pH 7.4; for half-life at 3 µM / half-life at 0.75 h, 3 µM: pH 7.4, 3 µM, 0.5 mg/mL protein, read-out: RLM t1/2
Experimental: Microsomal Metabolic Stability […]
the reaction. The final incubation volume is 50 µL. A minus cofactor control incubation is […]
NADPH (minus NADPH). Two control compounds are included with each species. All incubations are performed singularly for each test compound. Each compound is incubated for 0, 5, 15, 30 and 45 min. The control (minus NADPH) is incubated for 45 min. The reactions […]
Elimination rate constant (k) = (- gradient)
Intrinsic clearance (CLint)(µL/min/mg protein) = where V = Incubation volume (µL)/Microsomal protein (mg) […]
specified limits (if available).
(Molecular Devices LLC), which simultaneously performs electrophysiology measurements for […]
All cell suspensions, buffers and […]

[3] = Turbidimetric kinetic aqueous solubility; type: physicochemical
Experimental: Physicochemical and ADMET properties of representative glycomimetics. […] The cells were incubated for 30 min in Hepes-buffered solution containing 10 μmol/L dihydroethidium (DHE), which intercalates with DNA in the presence of ROS and is detectable by fluorescence. Cells were counterstained with the nuclear stain DAPI at 0.3 μmol/L. In the following 24 h, the cell cultures were examined using a fluorescence microscope (Leica DMIRB). Sections were photographed and fluorescence was quantified using ImageJ. All parameters (pinhole, contrast, gain and offset) were held constant for all sections from the same experiment. ROS production was estimated from the ratio of ethidium/DAPI fluorescence.S6 Western blot analysis HepG2 wells were lysed in RIPA buffer containing proteinase inhibitors and the total protein was quantified using BCA protein assay kit (Pierce Biotechnology). Proteins (30 μg/well) were denatured and separated by sodium dodecyl sulfate (SDS)-polyacrylamide gel electrophoresis and transferred to polyvinylidene difluoride (PVDF) membranes. Blots were blocked for 1 h in 5% semi-skimmed milk/Tris-Buffered Saline Tween-20 (TBS-T), probed with primary rabbit anti-phospho-protein kinase B (Akt), rabbit anti-Akt (Santa Cruz Biotechnology), rabbit polyclonal anti-phospho-eNOS (Cell Signaling) overnight at 4 °C followed by washing and incubation with the corresponding horse radish peroxidase-labelled secondary antibody for 1 h at room temperature. After washing with TBS-T, membranes were incubated with ECL reagent and visualized (Amersham Pharmacia Biotech). Densitometry analysis using ImageJ© (version 1.32j, NIH) was used to quantify the protein signal.S7 Turbidimetric Aqueous Solubility Test compound (10 mM in DMSO) was serially diluted to give solutions of 0.1, 0.3, 1 and 3 mM in DMSO. Each test compound concentration was then further diluted 1 in 100 in buffer (typically 0.01 M phosphate buffered saline pH 7.4) so that the final DMSO concentration is 1 % and the final test compound concentrations are 1, 3, 10, 30 and 100 µM. The experiment is performed at 37 °C and each concentration is incubated in 7 replicate wells. The plates are incubated for 2 h at 37 °C before the absorbance is measured at 620nm. Nicardipine (pH dependent) and pyrene (pH independent) are included as control compounds. The solubility is estimated from the concentration of test compound that produces an increase in absorbance above vehicle control (1% DMSO in buffer). S11

[4] = phosphate buffered saline, turbidimetric assay, PBS pH 7.4, 37 °C, 2 h, read-out: Kinetic solubility

Row | microsomal CLint at 3 µM [2] [µL/min/mg] | half-life at 3 µM [2] [h] | solubility kinetic at 2 h [3, 4] [µM] | SMILES | ROS production [1] [%] | microsomal CLint at 0.75 h, 3 µM [2] [µL/min/mg] | half-life at 0.75 h, 3 µM [2] [h] | solubility kinetic at 2 h ([3]; pH 7.4) [µM]
1 | 9.56 | 2.42 | > 100 | COC(=O)c1cc(OC[C@@H](COS(=O)(=O)[O-])OS(=O)(=O)[O-])ccc1OCC(COS(=O)(=O)[O-])OS(=O)(=O)[O-].[Na+].[Na+].[Na+].[Na+] (mixture of isomers) [α-4, sodium 3-(4-((S)-2,3-bis(sulfonatooxy)propoxy)-2-(methoxycarbonyl)phenoxy)propane-1,2-diyl bis(sulfate)] | −28 |  |  | 
2 | 0.649 | 35.7 | > 100 | O=C([O-])c1cc(OC[C@H](COS(=O)(=O)[O-])OS(=O)(=O)[O-])ccc1OCC(COS(=O)(=O)[O-])OS(=O)(=O)[O-].[Na+].[Na+].[Na+].[Na+].[Na+] (mixture of isomers) [β-5, sodium 5-((R)-2,3-bis(sulfonatooxy)propoxy)-2-(2,3-bis(sulfonatooxy)propoxy)benzoate] | −29 |  |  | 
3 |  |  |  | COC(=O)c1cc(OC[C@@H](COS(=O)(=O)[O-])OS(=O)(=O)[O-])ccc1OCCCCOS(=O)(=O)[O-].[Na+].[Na+].[Na+] [Compound S-10, sodium (S)-3-(3-(methoxycarbonyl)-4-(4-(sulfonatooxy)butoxy)phenoxy)propane-1,2-diyl bis(sulfate)] | −39 | 12.8 | 1.82 | > 100

Row | SMILES | microsomal CLint at 3 µM [2] [µL/min/mg] | half-life at 3 µM [2] [h] | solubility kinetic at 2 h [3, 4] [µM] | ROS production [1] [%] | microsomal CLint at 0.75 h, 3 µM [2] [µL/min/mg] | half-life at 0.75 h, 3 µM [2] [h] | solubility kinetic at 2 h ([3]; pH 7.4) [µM]
4 | COC(=O)c1cc(OC[C@H](COS(=O)(=O)[O-])OS(=O)(=O)[O-])ccc1OCCCCOS(=O)(=O)[O-].[Na+].[Na+].[Na+] [Compound R-10, sodium (R)-3-(3-(methoxycarbonyl)-4-(4-(sulfonatooxy)butoxy)phenoxy)propane-1,2-diyl bis(sulfate)] |  |  | > 100 | −23 | 4.11 | 5.63 | 

Reference: PMC8152814, “The modulatory role of sulfated and non-sulfated small molecule heparan sulfate-glycomimetics in endothelial dysfunction: absolute structural clarification, molecular docking and simulated dynamics, SAR analyses and ADMET studies” (RSC Medicinal Chemistry, 2021)
